Experimental data from US20120135995A1, “FUNGICIDAL DIPHENYL-SUBSTITUTED PYRIDAZINES” (E.I. Dupont de Nemours and Company, priority 2009, published 2012).
Marks after values point to notes of the source that are not given here.

Legend:
Botrytis cinerea = test: Test A: tomato seedlings sprayed, next day inoculated with Botrytis cinerea (tomato Botrytis), visual disease rating; type: in vivo; conditions: sprayed day before inoculation; for pest or weed control at 40 ppm / pest or weed control at 200 ppm: Botrytis cinerea
Excerpt: (§1) General protocol for preparing test suspensions for Tests A-F: the test compounds were first dissolved in acetone in an amount equal to 3% of the final volume and then suspended at the desired concentration (in ppm) in acetone and purified water (50/50 mix) containing 250 ppm of the surfactant Trem® 014 (polyhydric alcohol esters). The resulting test suspensions were then used in Tests A-F. Spraying a 200 ppm test suspension to the point of run-off on the test plants was the equivalent of a rate of 500 g/ha. An asterisk “*” next to the rating value indicates a 40 ppm test suspension.
The test suspension was sprayed to the point of run-off on tomato seedlings. The following day the seedlings were inoculated with a spore suspension of Botrytis cinerea (the causal agent of tomato Botrytis) and incubated in saturated atmosphere at 20° C. for 48 h, and then moved to a growth chamber at 24° C. for 3 days, after which time visual disease ratings were made.
(§2) Results for Tests A-F are given in Table A. In the Table, a rating of 100 indicates 100% disease control and a rating of 0 indicates no disease control (relative to the controls). A dash (-) indicates no test results. All results are for 200 ppm except where followed by “*”, which indicates 40 ppm.

Alternaria solani = test: Test B: tomato seedlings sprayed, next day inoculated with Alternaria solani (tomato early blight), visual disease rating; type: in vivo; conditions: sprayed day before inoculation; for pest or weed control at 40 ppm / pest or weed control at 200 ppm: Alternaria solani
Excerpt: as §1
The test suspension was sprayed to the point of run-off on tomato seedlings. The following day the seedlings were inoculated with a spore suspension of Alternaria solani (the causal agent of tomato early blight) and incubated in a saturated atmosphere at 27° C. for 48 h, and then moved to a growth chamber at 20° C. for 5 days, after which time visual disease ratings were made.
as §2

Septoria nodorum = test: Test C: wheat seedlings sprayed, next day inoculated with Septoria nodorum (wheat glume blotch), visual disease rating; type: in vivo; conditions: sprayed day before inoculation; for pest or weed control at 40 ppm / pest or weed control at 200 ppm: Parastagonospora nodorum
Excerpt: as §1
(§3) The test suspension was sprayed to the point of run-off on wheat seedlings. The following day the seedlings were inoculated with a spore suspension of Septoria nodorum (the causal agent of wheat glume blotch) and incubated in a saturated atmosphere at 24° C. for 48 h, and then moved to a growth chamber at 20° C. for 6 days, after which time visual disease ratings were made.
as §2

Septoria tritici = test: Test D: wheat seedlings sprayed, next day inoculated with Septoria tritici (wheat leaf blotch), visual disease rating; type: in vivo; conditions: sprayed day before inoculation; for pest or weed control at 40 ppm / pest or weed control at 200 ppm: Zymoseptoria tritici
Excerpt: as §1
as §3, with “tritici” for “nodorum”, “leaf” for “glume”, “in” for “in a”, “19” for “6”
as §2

[1] = system: Puccinia recondita f. sp. tritici; test: Test E1: wheat seedlings inoculated with Puccinia recondita f. sp. tritici (wheat leaf rust), sprayed afterwards, visual disease rating; type: in vivo; conditions: sprayed after inoculation; for pest or weed control at 40 ppm / pest or weed control at 200 ppm: Puccinia recondita
Excerpt: as §1
Wheat seedlings were inoculated with a spore suspension of Puccinia recondita f. sp. tritici (the causal agent of wheat leaf rust) and incubated in a saturated atmosphere at 20° C. for 24 h, and then moved to a growth chamber at 20° C. for 2 days. At the end of this time the test suspension was sprayed to the point of run-off on the wheat seedlings, and then the seedlings were moved to a growth chamber at 20° C. for 6 days, after which time visual disease ratings were made.
as §2

[2] = system: Puccinia recondita f. sp. tritici; test: Test E2: wheat seedlings sprayed, next day inoculated with Puccinia recondita f. sp. tritici (wheat leaf rust), visual disease rating; type: in vivo; conditions: sprayed day before inoculation; for pest or weed control at 40 ppm / pest or weed control at 200 ppm: Puccinia recondita
Excerpt: as §1
The test suspension was sprayed to the point of run-off on wheat seedlings. The following day the seedlings were inoculated with a spore suspension of Puccinia recondita f. sp. tritici (the causal agent of wheat leaf rust) and incubated in a saturated atmosphere at 20° C. for 24 h, and then moved to a growth chamber at 20° C. for 7 days, after which time visual disease ratings were made.
as §2

Erysiphe graminis = test: Test F: wheat seedlings sprayed, next day inoculated with Erysiphe graminis (wheat powdery mildew), visual disease rating; type: in vivo; conditions: sprayed day before inoculation; for pest or weed control at 40 ppm / pest or weed control at 200 ppm: Blumeria graminis
Excerpt: as §1
The test suspension was sprayed to the point of run-off on wheat seedlings. The following day the seedlings were inoculated with a spore dust of Erysiphe graminis, (the causal agent of wheat powdery mildew) and incubated in a growth chamber at 20° C. for 8 days, after which time visual disease ratings were made.
as §2

| Structure (SMILES) | Test A rating (disease control) (Botrytis cinerea; 200 ppm test suspension) | Test B rating (disease control) (Alternaria solani; 200 ppm test suspension) | Test C rating (disease control) (Septoria nodorum; 200 ppm test suspension) | Test D rating (disease control) (Septoria tritici; 200 ppm test suspension) | Test E1 rating (disease control) ([1]; 200 ppm test suspension) | Test E2 rating (disease control) ([2]; 200 ppm test suspension) | Test F rating (disease control) (Erysiphe graminis; 200 ppm test suspension) | further results |
| --- | --- | --- | --- | --- | --- | --- | --- | --- |
| COc1cc(OC)cc(-c2c(C(C)C)nnc(Cl)c2-c2c(F)cc(F)cc2F)c1 [Compound 16] | 99% | 99% | 92% | 99% | 100% | 100% | 100% | – |
| COc1cc(OC)c(Cl)c(-c2c(C)nnc(Cl)c2-c2c(F)cccc2Cl)c1 [Compound 41] | 99% | 99% | 0% | 100% | 86% | 100% | 100% | – |
| COc1cc(OC)c(Cl)c(-c2c(C)nnc(Cl)c2-c2c(F)cccc2Cl)c1Cl [Compound 42] | 0% | 0% | 0% | 60% | 0% | 89% | 42% | – |
| COc1cc(OC)cc(-c2c(CCl)nnc(Cl)c2-c2c(F)cccc2F)c1 [Compound 26, 3-chloro-6-(chloromethyl)-4-(2,6-difluorophenyl)-5-(3,5-dimethoxyphenyl)-pyridazine] | – | – | – | – | – | – | – | pest or weed control at 40 ppm (Botrytis cinerea; 40 ppm test suspension (*)): 99%; pest or weed control at 40 ppm (Alternaria solani; 40 ppm test suspension (*)): 0%; pest or weed control at 40 ppm (Septoria nodorum; 40 ppm test suspension (*)): 0%; pest or weed control at 40 ppm (Septoria tritici; 40 ppm test suspension (*)): 99%; pest or weed control at 40 ppm ([1]; 40 ppm test suspension (*)): 0%; pest or weed control at 40 ppm ([2]; 40 ppm test suspension (*)): 97%; pest or weed control at 40 ppm (Erysiphe graminis; 40 ppm test suspension (*)): 0% |
| COc1cc(OC)cc(-c2c(CC#N)nnc(Cl)c2-c2c(F)cccc2F)c1 [Compound 27, 6-chloro-5-(2,6-difluorophenyl)-4-(3,5-dimethoxyphenyl)-3-pyridazine-acetonitrile] | – | – | – | – | – | – | – | pest or weed control at 200 ppm (Botrytis cinerea; 200 ppm test suspension): 100%; pest or weed control at 200 ppm (Alternaria solani; 200 ppm test suspension): 99%; pest or weed control at 200 ppm (Septoria nodorum; 200 ppm test suspension): 100%; pest or weed control at 200 ppm (Septoria tritici; 200 ppm test suspension): 100%; pest or weed control at 200 ppm ([1]; 200 ppm test suspension): 0%; pest or weed control at 200 ppm ([2]; 200 ppm test suspension): 100%; pest or weed control at 200 ppm (Erysiphe graminis; 200 ppm test suspension): 98% |
| COc1cc(OC)cc(-c2c(C)nnc(F)c2-c2c(F)cccc2F)c1 [Compound 33, 4-(2,6-difluorophenyl)-3-fluoro-5-(3,5-dimethoxyphenyl)-6-methylpyridazine] | – | – | – | – | – | – | – | pest or weed control at 200 ppm (Botrytis cinerea; 200 ppm test suspension): 99%; pest or weed control at 200 ppm (Alternaria solani; 200 ppm test suspension): 100%; pest or weed control at 200 ppm (Septoria nodorum; 200 ppm test suspension): 99%; pest or weed control at 200 ppm (Septoria tritici; 200 ppm test suspension): 100%; pest or weed control at 200 ppm ([1]; 200 ppm test suspension): 60%; pest or weed control at 200 ppm ([2]; 200 ppm test suspension): 100%; pest or weed control at 200 ppm (Erysiphe graminis; 200 ppm test suspension): 99%; melting point: 150 to 151 °C |
| COc1cc(OC)cc(-c2c(C)nnc(F)c2-c2ccc(F)cc2F)c1 [Compound 46] | 99% | 100% | 84% | 100% | 0% | 98% | 98% | – |
| COc1cc(OC)cc(-c2c(C)nnc(Cl)c2-c2c(F)cccc2F)c1 [Compound 24, 3-chloro-4-(2,6-difluorophenyl)-5-(3,5-dimethoxyphenyl)-6-methylpyridazine] | – | – | – | – | – | – | – | pest or weed control at 40 ppm (Botrytis cinerea; 40 ppm test suspension (*)): 100%; pest or weed control at 40 ppm (Alternaria solani; 40 ppm test suspension (*)): 26%; pest or weed control at 40 ppm (Septoria nodorum; 40 ppm test suspension (*)): 55%; pest or weed control at 40 ppm (Septoria tritici; 40 ppm test suspension (*)): 100%; pest or weed control at 40 ppm ([1]; 40 ppm test suspension (*)): 26%; pest or weed control at 40 ppm ([2]; 40 ppm test suspension (*)): 100%; pest or weed control at 40 ppm (Erysiphe graminis; 40 ppm test suspension (*)): 98% |
| COc1ccc(-c2c(C)nnc(C(C)(C)O)c2-c2cc(OC)cc(OC)c2)cc1 [Compound 19] | – | – | – | – | – | – | – | Test A rating (disease control) (Botrytis cinerea; 40 ppm test suspension (*)): 84* %; Test B rating (disease control) (Alternaria solani; 40 ppm test suspension (*)): 99* %; Test C rating (disease control) (Septoria nodorum; 40 ppm test suspension (*)): 0* %; Test D rating (disease control) (Septoria tritici; 40 ppm test suspension (*)): 97* %; Test E1 rating (disease control) ([1]; 40 ppm test suspension (*)): 0* %; Test E2 rating (disease control) ([2]; 40 ppm test suspension (*)): 96* %; Test F rating (disease control) (Erysiphe graminis; 40 ppm test suspension (*)): 27* % |
| COc1cc(-c2c(C)nnc(Cl)c2-c2ccc(F)cc2F)cc(OC)c1Cl [Compound 45] | 100% | 100% | 97% | 100% | 100% | 100% | 100% | – |
| COc1cc(OC)cc(-c2c(C(C)C)nnc(C)c2-c2c(F)cc(F)cc2F)c1 [Compound 18] | 100% | 99% | 82% | 99% | 100% | 100% | 100% | – |
| COc1cc(OC)cc(-c2c(C)nnc(C)c2-c2ccc(F)cc2F)c1 [Compound 40] | 100% | 99% | 97% | 100% | 0% | 100% | 95% | – |
| COc1cc(OC)cc(-c2c(C)nnc(Cl)c2-c2ccc(F)cc2F)c1 [Compound 32] | 99% | 99% | 78% | 99% | 0% | 99% | 89% | – |
| COc1cc(OC)cc(-c2c(CC#N)nnc(C)c2-c2c(F)cccc2F)c1 [Compound 35] | 98% | 99% | 99% | 100% | 46% | 100% | 99% | – |
| COc1cc(OC)cc(-c2cnnc(Cl)c2-c2c(F)cc(F)cc2F)c1 [Compound 5, 3-chloro-5-(3,5-dimethoxyphenyl)-4-(2,4,6-trifluorophenyl)pyridazine] | – | – | – | – | – | – | – | pest or weed control at 200 ppm (Botrytis cinerea; 200 ppm test suspension): 99%; pest or weed control at 200 ppm (Alternaria solani; 200 ppm test suspension): 100%; pest or weed control at 200 ppm (Septoria nodorum; 200 ppm test suspension): 100%; pest or weed control at 200 ppm (Septoria tritici; 200 ppm test suspension): 98%; pest or weed control at 200 ppm ([1]; 200 ppm test suspension): 99%; pest or weed control at 200 ppm ([2]; 200 ppm test suspension): 100%; pest or weed control at 200 ppm (Erysiphe graminis; 200 ppm test suspension): 100% |
| COc1cc(OC)c(Cl)c(-c2c(C)nnc(Cl)c2-c2ccc(F)cc2F)c1 [Compound 44] | 66% | 99% | 64% | 100% | 96% | 100% | 100% | – |
| COc1ccc(-c2c(C)nnc(C(C)=O)c2-c2cc(OC)cc(OC)c2)cc1 [Compound 14] | 99% | 0% | 0% | 99% | 16% | 95% | 84% | – |
